Assay results from patent US20230159667A1, “BIOCOMPATIBLE CARRIER FORMULATION FOR APPLICATIONS IN PLANT PROTECTION AND PLANT GROWTH STIMULATION OR IN COSMETICS AND PERSONAL CARE ON THE BASIS OF MODIFIED STARCH” (Amynova Polymers GmbH, priority 2020, published 2023).
Where two headings read alike, the source gives them in different places.

Experiment: Active ingredient remaining on foliage after rainfall
[1] = sprayed with the invention as adjuvant vs fungicide alone, 27 mm rainfall 2009, 24 mm 2010

| Compound | rain fastness on leaves (residues remaining on foliage after rainfall) | rain fastness on leaves (residues remaining on foliage after rainfall) [1] |
| --- | --- | --- |
| COc1ccc(C(=CC(=O)N2CCOCC2)c2ccc(Cl)cc2)cc1OC [dimethomorph] | Improved rain fastness | – |
| O=[N+]([O-])c1cc(C(F)(F)F)c(Cl)c([N+](=O)[O-])c1Nc1ncc(C(F)(F)F)cc1Cl [fluazinam] | – | Improved rain fastness |
| Mancozeb | – | Improved rain fastness |
